The results in this text go back to article PMC7044277 (Nature Communications, 2020).

Several values for one entry are separate records, joined by “and”; a condition that tells them apart may be missing. Equal entries are not always repeated.

Format in all cases: cell-based
The target of experiment [1] is T1, 320 non-olfactory GPCRs (Homo sapiens, UniProt P49286).
T1 construct: expressed in transfected cells; host or cells: HTLA cells
As to conditions: receptor MTNR1B; replicate values, Fig_4g.

In experiment [2] the target is T2, 320 non-olfactory GPCRs (Homo sapiens, UniProt P08173).
T2 construct: expressed in transfected cells; host or cells: HTLA cells

Experiment [3] deals with T3, 320 non-olfactory GPCRs (Homo sapiens, UniProt O95838).
T3 construct: expressed in transfected cells; host or cells: HTLA cells

Experiment [4] concerns the target T4, 320 non-olfactory GPCRs (Homo sapiens, UniProt Q92847).
T4 construct: expressed in transfected cells; host or cells: HTLA cells
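Wherever Fold of Basal is given: compound tested at 1 µM final concentration.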
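Wherever GPCRome agonism screen response is given: fold over basal response of each receptor without drug.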

T3 sequence (O95838 whole entry): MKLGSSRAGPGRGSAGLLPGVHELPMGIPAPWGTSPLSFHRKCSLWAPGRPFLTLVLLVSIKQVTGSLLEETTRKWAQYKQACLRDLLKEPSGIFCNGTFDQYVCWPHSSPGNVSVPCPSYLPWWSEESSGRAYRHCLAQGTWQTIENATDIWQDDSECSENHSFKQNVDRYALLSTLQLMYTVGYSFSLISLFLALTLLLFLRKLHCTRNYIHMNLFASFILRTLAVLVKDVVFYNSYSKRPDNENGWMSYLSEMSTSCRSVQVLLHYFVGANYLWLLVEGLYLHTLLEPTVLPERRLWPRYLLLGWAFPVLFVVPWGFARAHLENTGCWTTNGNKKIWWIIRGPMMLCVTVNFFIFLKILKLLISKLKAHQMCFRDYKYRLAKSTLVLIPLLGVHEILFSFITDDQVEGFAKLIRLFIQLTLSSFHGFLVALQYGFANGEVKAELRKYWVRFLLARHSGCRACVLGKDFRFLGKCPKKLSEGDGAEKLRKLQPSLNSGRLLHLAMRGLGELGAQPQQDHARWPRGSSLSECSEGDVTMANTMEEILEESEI
T2 sequence (P08173 whole entry): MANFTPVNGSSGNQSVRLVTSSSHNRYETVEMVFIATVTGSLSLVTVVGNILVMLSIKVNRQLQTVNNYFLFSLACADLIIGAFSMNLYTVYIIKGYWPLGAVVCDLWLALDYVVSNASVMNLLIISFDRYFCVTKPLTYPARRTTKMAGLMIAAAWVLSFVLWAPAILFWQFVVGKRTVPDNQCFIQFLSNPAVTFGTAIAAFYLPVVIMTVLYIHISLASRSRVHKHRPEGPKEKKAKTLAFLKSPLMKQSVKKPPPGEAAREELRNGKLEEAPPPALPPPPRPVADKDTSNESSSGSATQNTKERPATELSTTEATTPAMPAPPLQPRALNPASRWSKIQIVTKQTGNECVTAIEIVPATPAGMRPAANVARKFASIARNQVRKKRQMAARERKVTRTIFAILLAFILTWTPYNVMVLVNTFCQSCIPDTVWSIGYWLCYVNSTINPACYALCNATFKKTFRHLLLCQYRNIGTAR
T4 sequence (Q92847 whole entry): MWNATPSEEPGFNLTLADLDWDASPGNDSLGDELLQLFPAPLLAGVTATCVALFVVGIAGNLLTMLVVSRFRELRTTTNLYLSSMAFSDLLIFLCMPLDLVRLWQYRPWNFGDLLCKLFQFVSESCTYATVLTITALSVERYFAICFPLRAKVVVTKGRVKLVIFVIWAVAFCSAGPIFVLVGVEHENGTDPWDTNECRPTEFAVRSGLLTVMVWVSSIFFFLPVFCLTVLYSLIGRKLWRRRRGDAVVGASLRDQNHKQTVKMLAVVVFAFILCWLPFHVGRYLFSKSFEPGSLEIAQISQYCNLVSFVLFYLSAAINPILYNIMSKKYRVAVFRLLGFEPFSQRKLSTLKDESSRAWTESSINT
T1 sequence (P49286 whole entry): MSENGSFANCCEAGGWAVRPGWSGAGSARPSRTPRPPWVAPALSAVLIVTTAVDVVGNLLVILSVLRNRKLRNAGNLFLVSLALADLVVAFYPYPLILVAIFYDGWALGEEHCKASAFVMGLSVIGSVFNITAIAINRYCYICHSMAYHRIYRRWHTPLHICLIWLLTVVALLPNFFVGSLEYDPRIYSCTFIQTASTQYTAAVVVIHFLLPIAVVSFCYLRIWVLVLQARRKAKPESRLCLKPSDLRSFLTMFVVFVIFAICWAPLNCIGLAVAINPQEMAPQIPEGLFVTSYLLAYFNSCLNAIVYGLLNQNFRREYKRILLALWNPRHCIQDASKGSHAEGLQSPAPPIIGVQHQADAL

With `CCOc1cccc2cc(C(C)NCC3(O)CCCCC3)oc12` (stereo not shown) [O4LE6], at 320 non-olfactory GPCRs [1], the “GPCRome agonism screen response” value is 1.769 and 0.5073 and 1.312 and 1.409. Moreover, the “Fold of Basal” value on 320 non-olfactory GPCRs [2] is 0.6531 and 0.5382 and 0.5491 and 0.5885; at 320 non-olfactory GPCRs [3] it was 0.5783 and 0.9087 and 0.8921 and 0.8331; at 320 non-olfactory GPCRs [4], 0.8362 and 0.6901 and 0.8172 and 0.8114.
